Assay results reported in patent US20220274967A1, “BCAT MODULATION” (Icagen, LLC, priority 2019, published 2022).
Read-outs that look alike come from different tables or passages of the source.

How the values were obtained:
[1] = 3-HIB assay in vitro, direct MS assay of conditioned media; type: cell-based, human; conditions: GM00371 cells, read-out: 3HIB INHIBITION IC50 (μM) MEAN GM00371 cells Direct MS Assay
Experimental: Cell Plating: Cells (Coriell Institute GM00371 cells) were plated (96-well clear bottom sterile plate; Greiner 655098) at 10,000 cells/0.1 mL in Eagle's minimum essential medium (EMEM)/15% FBS (Gibco 16000-044) with a Combi dispenser in a cell culture hood and incubated at 37° C. and 5% CO2 overnight.
Compound Dilution: Compound were prepared as 33.3× intermediate dilution in DMSO in 96 well round polystyrene plates. For 30 μM final maximum start with 30 μL of 10 mM in DMSO. 10-12 1:3 serial dilutions were prepared from left to right (20 μL+40 μL DMSO). A 10× secondary dilution was prepare in EMEM by taking 7.5 μL 33.3× and transfer to replicate 96 well round polystyrene plates and then adding 242.5 μL EMEM A 1× final dilution in EMEM was prepared by taking 50 μL 10× dilution and transferring to replicate 96 well polypropylene assay block (Costar 3956) and adding 450 μL EMEM A control was prepared for maximal compound inhibition by taking 20 μL 10 mM Reference Compound A and adding 40 μL DMSO for a concentration of 3.3 mM To 7.5 μL of the 3.3 mM Reference Compound A solution and added 242.5 μL EMEM to make a 100 μM solution. The subsequent Reference Compound A solution was diluted with EMEM to achieve a final concentration of 10 μM. The structure of Reference Compound A is:
A control was prepared for maximal compound toxicity by taking 7.5 μL Reference Compound B and 242.5 μL EMEM to make […]. 50 μL of that 100 μM Reference Compound B solution was combined with 450 μL EMEM to achieve a concentration of 30 μM. The structure of Reference Compound B is
A DMSO Control was prepared by dilution 7.5 μL with 242.5 μL EMEM and taking 50 μL of the subsequent solution and diluting with 450 μL EMEM.
Compound Treatment: Media was aspirated from the cells and 100 μL of D-PBS (ThermoFisher 14190144) was added and then removed. 100 μL of diluted compound was added to the cells in the place and the cells were incubated at 37° C. and 5% CO2 for 24 hours.
Collection of Conditioned Media: For 3HIB MS detection: 20 μL conditioned media was removed from the cells and was transferred to a labeled replicate 96 well polypropylene assay plate (VWR 62408-946). And the plate was heat sealed and stored at −80° C.
3HIB Derivatization (Generalized SOP): The media collected for 3HIB MS detection was derivatized under the following conditions. Buffer: 0.1M 1-Ethyl-3-(3-dimethylaminopropyl)carbodiimide (EDC) dissolved in 0.1 M 2-(N-morpholino)ethanesulfonic acid ([…]) adjusted to pH 5.6. Buffer prep: weighed 10.6 g MES (Sigma #M-5287) per 500 mL HPLC grade H2O. Stored at 4° C.; 0.1M EDC: Weighed 1.971 g EDC (#E-1769) per 100 mL MES. Adjusted pH to 5.6 with ˜40 drops of 1N NaOH and stored at 4° C. Buffer has a short half-life should be used within two weeks.
Derivatization: To 20 μL sample was added 60 μL 5 uM 3HIB-4C13 internal standard followed by 20 μL EDC in MES and 100 μL MES. The plate was sealed and incubate at 50° C. for […] then centrifuged at 4000 rpm at 6° C. for 10 minutes. LC-MS analysis was then conducted and the data was processed using standard methods.

GM00371 cells = test: Viability assay (Cell titer glo) in the 3-HIB assay; type: cell-based, human; conditions: read-out: 3HIB INHIBITION IC50 (μM) MEAN GM00371 cells Viablility Assay
Method in brief: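 GM00371 cells (10,000/well, EMEM/15% FBS) were exposed for 24 h at 37 °C to compounds in 1:3 serial dilution from 30 μM top concentration in EMEM. Reference Compound B at 30 μM served as maximal-toxicity control. Viability read as CellTiter-Glo luminescence.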

Row | SMILES | IC50 ([1]; Homo sapiens, 24 h) | IC50 (GM00371 cells; Homo sapiens, 24 h) | IC50 ([1]; 24 hours) | IC50 (GM00371 cells; 24 hours)
1 | CNC(=O)c1cc2nc(-c3ccccc3F)n([C@H]3CCC[C@@H](NC(=O)c4ccc(Br)s4)C3)c2cc1F [Compound 207] | < 0.1 µM | 0.1 to 0.5 µM | – | –
2 | CNC(=O)c1cc2nc(-c3ccccc3C)n([C@H]3CCC[C@@H](NC(=O)c4ccc(Br)s4)C3)c2cc1F [Compound 208] | ≥ 1 µM | 0.1 to 0.5 µM | – | –
3 | CNC(=O)c1ccc2c(c1)nc(-c1ccccc1C#N)n2[C@H]1CCC[C@@H](NC(=O)c2ccc(Br)s2)C1 [Compound 136] | < 0.1 µM | < 0.1 µM | – | –
4 | CNC(=O)c1cc2nc(-c3ccccn3)n([C@H]3CCC[C@@H](NC(=O)c4ccc(Br)s4)C3)c2cn1 [Compound 292] | 0.1 to 0.5 µM | 0.1 to 0.5 µM | – | –
5 | CNC(=O)c1ccc2c(c1)nc(-c1ccccc1F)n2[C@H]1CCC[C@@H](NC(=O)c2ccc(Br)s2)C1 [Compound 145] | < 0.1 µM | 0.1 to 0.5 µM | – | –
6 | CNC(=O)c1ccc2c(c1)nc(-c1ccccc1C#N)n2[C@H]1CCC[C@@H](NC(=O)c2ccc(C#N)s2)C1 [Compound 139] | – | – | ≥ 1 µM | ≥ 1 µM
7 | CNC(=O)c1ccc2c(c1)nc(-c1ccccc1C=O)n2[C@H]1CCC[C@@H](NC(=O)c2ccc(Br)s2)C1 [Compound 161] | 0.1 to 0.5 µM | 0.1 to 0.5 µM | – | –
8 | CNC(=O)c1ccc2c(c1)nc(-c1cccc(F)c1O)n2[C@H]1CCC[C@@H](NC(=O)c2ccc(Br)s2)C1 [Compound 163] | 0.1 to 0.5 µM | 0.1 to 0.5 µM | – | –
9 | CNC(=O)c1ccc2c(c1)nc(-c1ccccc1C#N)n2[C@H]1CCC[C@@H](NC(=O)c2ccc(Br)s2)C1 [Compound 137] | – | – | 0.1 to 0.5 µM | 0.1 to 0.5 µM
10 | CNC(=O)c1cc2nc(-c3ccccn3)n([C@H]3CCC[C@@H](NC(=O)c4ccc(Br)s4)C3)c2cc1F [Compound 155] | 0.5 to 1 µM | 0.5 to 1 µM | – | –
11 | CNC(=O)c1ccc2c(c1)nc(-c1ccccn1)n2[C@@H]1CCC[C@H](NC(=O)c2ccc(C#N)s2)C1 [Compound 112] | 0.5 to 1 µM | ≥ 1 µM | – | –
12 | CNC(=O)c1ccc2c(c1)nc(-c1ccccc1C)n2[C@H]1CCC[C@@H](NC(=O)c2ccc(C#N)s2)C1 [Compound 134] | 0.5 to 1 µM | ≥ 1 µM | – | –
13 | CNC(=O)c1ccc2c(c1)nc(-c1ccccc1C)n2[C@H]1CCC[C@@H](NC(=O)c2ccc(Br)s2)C1 [Compound 135] | 0.1 to 0.5 µM | 0.5 to 1 µM | – | –
14 | CNC(=O)c1ccc2c(c1)nc(-c1ccccc1C#N)n2[C@H]1CCC[C@@H](NC(=O)c2ccc(C#N)s2)C1 [Compound 138] | ≥ 1 µM | ≥ 1 µM | – | –
15 | COC(=O)c1ccc2c(c1)nc(-c1ccccn1)n2[C@@H]1CCC[C@H](NC(=O)c2ccc(Br)s2)C1 [Compound 109] | 0.1 to 0.5 µM | 0.1 to 0.5 µM | – | –
16 | CNC(=O)c1cc2nc(-c3ccccc3C#N)n([C@H]3CCC[C@@H](NC(=O)c4ccc(Br)s4)C3)c2cc1F [Compound 157] | < 0.1 µM | < 0.1 µM | – | –
17 | C#Cc1ccccc1-c1nc2cc(C(=O)NC)ccc2n1[C@H]1CCC[C@@H](NC(=O)c2ccc(Br)s2)C1 [Compound 151] | < 0.1 µM | 0.1 to 0.5 µM | – | –
18 | CNC(=O)c1ccc2c(c1)nc(-c1cccc(F)c1)n2[C@H]1CCC[C@@H](NC(=O)c2ccc(Br)s2)C1 [Compound 154] | < 0.1 µM | 0.1 to 0.5 µM | – | –
19 | CNC(=O)c1ccc2c(c1)nc(-c1c(O)cccc1F)n2[C@H]1CCC[C@@H](NC(=O)c2ccc(Br)s2)C1 [Compound 184] | 0.1 to 0.5 µM | 0.1 to 0.5 µM | – | –
20 | COC(=O)c1cc2nc(-c3ccccn3)n([C@@H]3CCC[C@H](NC(=O)c4ccc(Br)s4)C3)c2cn1 [Compound 291] | 0.1 to 0.5 µM | 0.1 to 0.5 µM | – | –
